{"source": "patent US8455469B2", "about": "“Use of norgestimate as a selective inhibitor of TRPC3, TRPC6 and TRPC7 ion channels” (Sanofi, priority 2007, dated 2013)", "assay_type_in_all_cases": "cell-based", "key": {"[1]": {"target": "T1, TRPC3 (Homo sapiens, UniProt Q13507)", "T1 construct": "expressed in transfected cells; host or cells: HEK293 (inducible expression)", "T1 sequence (Q13507 1-921)": "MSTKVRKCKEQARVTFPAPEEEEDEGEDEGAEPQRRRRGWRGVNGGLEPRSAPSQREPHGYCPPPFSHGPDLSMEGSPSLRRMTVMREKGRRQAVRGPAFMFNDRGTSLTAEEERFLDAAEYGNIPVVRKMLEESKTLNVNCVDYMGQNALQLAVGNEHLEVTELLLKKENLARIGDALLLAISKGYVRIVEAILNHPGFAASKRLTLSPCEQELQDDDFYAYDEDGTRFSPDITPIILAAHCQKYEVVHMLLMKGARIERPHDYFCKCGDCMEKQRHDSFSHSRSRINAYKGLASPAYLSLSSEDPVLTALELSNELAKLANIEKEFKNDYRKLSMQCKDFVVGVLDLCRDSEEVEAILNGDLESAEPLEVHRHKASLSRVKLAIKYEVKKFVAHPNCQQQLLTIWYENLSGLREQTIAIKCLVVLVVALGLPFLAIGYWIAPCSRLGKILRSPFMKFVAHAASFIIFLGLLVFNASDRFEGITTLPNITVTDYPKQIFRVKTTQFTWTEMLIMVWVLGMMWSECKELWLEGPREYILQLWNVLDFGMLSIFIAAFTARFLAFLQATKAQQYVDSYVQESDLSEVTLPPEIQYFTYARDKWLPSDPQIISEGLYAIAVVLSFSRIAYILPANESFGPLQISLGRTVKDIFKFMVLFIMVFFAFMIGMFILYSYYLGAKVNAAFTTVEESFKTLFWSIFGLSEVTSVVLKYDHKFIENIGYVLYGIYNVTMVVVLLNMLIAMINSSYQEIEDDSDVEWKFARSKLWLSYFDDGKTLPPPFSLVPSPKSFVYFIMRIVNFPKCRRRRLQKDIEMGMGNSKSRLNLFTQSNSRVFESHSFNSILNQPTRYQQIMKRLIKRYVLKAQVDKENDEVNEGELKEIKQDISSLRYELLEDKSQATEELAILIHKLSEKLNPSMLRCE", "experiment": "FLIPR Ca2+ influx measurement, OAG-activated TRPC3 HEK293 cells", "conditions": "30 μM OAG", "description": "(§1) In general, cells are provided which express a TRPC channel. Such cells can be produced using genetic methods known to a person skilled in the art. After having induced the expression of the TRPC channel, cells are usually plated into e.g. microtiter plates and grown. Usually the cells grow at the bottom of multiwell plates and are fixed. Thereafter, the cells are generally washed and loaded with a dye in a suitable loading buffer, preferably with a fluorescent dye such as fluo4am. After having removed the loading buffer, the cells are incubated with the test compound or modulator, in particular with a biochemical or chemical test compound as described above, e.g. in the form of a chemical compound library. Ca^2+ measurements can be carried out using e.g. a Fluorescence Imaging Plate Reader (FLIPR). To stimulate Ca^2+ influx through the TRPC channel a channel activator such as OAG should generally be applied.\n(§2) TRPC3 and TRPC6 were directly activated by application of oleoyl-2-acetyl-sn-glycerol (OAG), a membrane permeable diacylglycerol analogue.\n(§3) (A, C) Time-dependent changes of intracellular Ca^2+ concentration ([Ca^2+]i) of fluo-4-loaded induced TRPC3 HEK293 cells (A) and TRPC6 HEK293 cells (C). […] Measurements were performed in 96er well plates using FLIPR (Molecular Devices, Sunnyvale, Calif., USA) (B, D) Determination of norgestimates IC50 value on TRPC3 (B) and TRPC6 (D). […]"}, "[2]": {"target": "T2, TRPC6 (Homo sapiens, UniProt Q9Y210)", "T2 construct": "expressed in transfected cells; host or cells: HEK293 (inducible expression)", "T2 sequence (Q9Y210 1-931)": "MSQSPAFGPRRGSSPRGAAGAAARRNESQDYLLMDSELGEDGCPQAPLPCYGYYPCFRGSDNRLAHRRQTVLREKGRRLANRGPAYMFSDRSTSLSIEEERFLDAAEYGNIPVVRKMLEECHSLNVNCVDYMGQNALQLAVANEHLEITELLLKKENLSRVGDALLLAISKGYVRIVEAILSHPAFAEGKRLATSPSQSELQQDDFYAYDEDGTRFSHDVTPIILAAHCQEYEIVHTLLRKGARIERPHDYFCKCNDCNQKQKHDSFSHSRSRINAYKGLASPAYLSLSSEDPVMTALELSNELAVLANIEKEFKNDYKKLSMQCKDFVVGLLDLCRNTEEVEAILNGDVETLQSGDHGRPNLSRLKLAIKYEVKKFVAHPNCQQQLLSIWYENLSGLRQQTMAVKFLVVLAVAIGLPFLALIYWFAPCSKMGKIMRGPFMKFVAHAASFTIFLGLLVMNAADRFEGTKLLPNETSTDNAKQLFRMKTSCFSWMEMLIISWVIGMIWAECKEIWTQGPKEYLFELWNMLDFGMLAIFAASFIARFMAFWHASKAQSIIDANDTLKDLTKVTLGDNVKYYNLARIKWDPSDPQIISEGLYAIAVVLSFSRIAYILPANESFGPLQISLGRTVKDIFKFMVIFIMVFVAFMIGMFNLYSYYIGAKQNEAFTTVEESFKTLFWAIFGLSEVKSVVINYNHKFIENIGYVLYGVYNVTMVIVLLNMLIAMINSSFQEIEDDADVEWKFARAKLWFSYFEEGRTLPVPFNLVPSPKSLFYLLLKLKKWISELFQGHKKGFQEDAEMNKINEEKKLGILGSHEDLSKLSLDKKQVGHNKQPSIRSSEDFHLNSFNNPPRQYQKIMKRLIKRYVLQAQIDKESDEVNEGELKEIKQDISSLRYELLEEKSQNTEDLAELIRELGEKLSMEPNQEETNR", "experiment": "FLIPR Ca2+ influx measurement, OAG-activated TRPC6 HEK293 cells", "conditions": "30 μM OAG", "description": "as §1, §2, §3"}, "[3]": {"target": "T3, V1 receptor (Rattus norvegicus, UniProt P30560)", "T3 construct": "endogenous in cells; host or cells: A7r5 (rat aortic smooth muscle)", "T3 sequence (P30560 whole entry)": "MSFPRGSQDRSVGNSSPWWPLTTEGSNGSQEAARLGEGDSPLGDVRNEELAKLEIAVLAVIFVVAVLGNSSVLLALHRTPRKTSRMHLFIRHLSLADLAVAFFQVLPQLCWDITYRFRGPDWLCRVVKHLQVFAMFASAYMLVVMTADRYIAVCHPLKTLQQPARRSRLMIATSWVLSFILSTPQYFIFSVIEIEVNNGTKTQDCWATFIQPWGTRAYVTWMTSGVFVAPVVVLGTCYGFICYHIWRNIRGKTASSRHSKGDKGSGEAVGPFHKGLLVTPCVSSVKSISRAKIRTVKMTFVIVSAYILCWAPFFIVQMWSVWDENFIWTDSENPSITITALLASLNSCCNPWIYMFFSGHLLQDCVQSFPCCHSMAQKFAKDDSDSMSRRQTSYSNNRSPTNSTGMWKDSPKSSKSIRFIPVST", "experiment": "Calcium imaging of fura-2-loaded A7r5 cells stimulated with AVP", "conditions": "10 μM, 5 min preincubation, calcium-free solution, 100 nM AVP", "protocol": "The A7r5 cell line (derived from rat thoracic aorta smooth muscle cells) is a model system to investigate endogenous TRPC channels (Jung et al., 2002; Soboloff et al., 2005). The channels were indirectly stimulated by Arg^8-vasopressin (AVP), a vasoconstricting peptide that activates the endogenous vasopressin V1A receptor in these cells (Thibonnier et al., 1991).\nTime-dependent changes of [Ca^2+]i; of fura-2-loaded A7r5 cells. Cells were preincubated with or without (control) 10 μM norgestimate (NG) in calcium-free standard extracellular solution (1 mM EGTA) for 5 min before stimulating the V1 receptor by application of 100 nM AVP. Data are represented as means of 33 cells (control) and 36 cells (10 μM norgestimate). Measurements were performed using a standard imaging setup (TILL Photonics, Gräfelfing, Germany)."}, "[4]": {"conditions": "cells preincubated with 30 μM norgestimate"}}}
{"compound": "C#C[C@]1(OC(C)=O)CC[C@H]2[C@@H]3CCC4=C/C(=N/O)CC[C@@H]4[C@H]3CC[C@@]21CC", "note": "[norgestimate, D-17β-acetoxy-B-ethyl-17α ethinyl-gon-4-en-3-one oxime]", "values": [{"measurement": "IC50", "setting": "[1]; FLIPR, n=2", "value": "2.8 ± 0.4", "unit": "µM"}, {"measurement": "TRPC3-mediated Ca2+ influx following application of OAG", "setting": "[1]; [4]", "value": "strongly reduced"}, {"measurement": "IC50", "setting": "[2]; FLIPR, n=4", "value": "5.2 ± 0.4", "unit": "µM"}, {"measurement": "TRPC6-mediated Ca2+ influx following application of OAG", "setting": "[2]; [4]", "value": "strongly reduced"}, {"measurement": "effect on V1 receptors (AVP-evoked [Ca2+]i)", "setting": "[3]", "value": "does not generally suppress"}]}
